This is an account of results in US11109593B2, “Isoxazolin-5-one derivative and herbicide containing same as active ingredient” (HOKKO CHEMICAL INDUSTRY CO., LTD., priority 2017, dated 2021).

Holding throughout (assay type): in vivo
Assay [1] concerns Scirpus juncoides. Put plainly: Test Example 1: herbicidal effect test by treatment of rice paddy soil (immediately after seeding). The following applies: 120 g/10a active ingredient, dry weight vs untreated area, 14 days after treatment. How it is done:
(§1) Herbicidal Effect Test by Treatment of Rice Paddy Soil
(§2) Wagner pots with an area of 1/10000 ares were filled with a paddy soil, and after adding water, a compound fertilizer (N:P:K=17:17:17) was added, followed by soil puddling. Then, Echinochloa crus-galli, broad leaf weeds (Lindernia pyxidaria and Monochoria vaginalis) and Scirpus juncoides, 30 seeds each, were sown in a depth of 0 to 1 cm. Water was poured immediately after seeding, and the water depth was kept at about 3 cm. The subsequent management was conducted in a glass greenhouse. Immediately after that, emulsions prepared using the compounds in Table 3 below according to Formulation Example 5 were diluted with water, and a certain amount of the water-diluted agent solutions were dropped. The converted amount of the applied active ingredient corresponded to 120 g per 10 ares.
(§3) This test was conducted in a double system per one agent solution concentration area, and the herbicidal rates (%) were determined by the following equation (Math. 1) on 14 days after the treatment with the agents. Herbicidal Rate (%)={1-(Average Dry Weight (g) of Plant of Treated Area)/(Average Dry Weight (g) of Plant of Untreated Area)}×100 [Math. 1]
(§4) The compound numbers in Table 3 are the same as those in Table 1 and Table 2 above.

For assay [2], the system named is Echinochloa crus-galli. The description is as above. The following applies: 120 g/10a active ingredient, dry weight vs untreated area, 14 days after treatment. As for the experimental part:
as §1, §2, §3, §4

In assay [3] the test system is broad leaf weeds (Lindernia pyxidaria and Monochoria vaginalis). Described as above. The following applies: 120 g/10a active ingredient, dry weight vs untreated area, 14 days after treatment. How it is done:
as §1, §2, §3, §4

Assay [4] relates to Scirpus juncoides. The experiment in a line: Test Example 2: herbicidal effect test by treatment during growing period in paddy rice cultivation (seven days after seeding). The note with it: 120 g/10a active ingredient, assessed 14 days after treatment, dry weight vs untreated area. How it is done:
as §3
(§5) Herbicidal Effect Test by Treatment During Growing Period in Paddy Rice Cultivation
as §2, with “was mixed,” for “was added,”, “greenhouse. Emulsions” for “greenhouse. Immediately after that, emulsions”, “Table 4” for “Table 3”, “with water seven days after seeding,” for “with water,”, “ares. The test was conducted in a double system per one agent solution concentration area, and the herbicidal rates (%) were determined by the equation (Math. 1) on 14 days after the treatment with the agents. […] The compound numbers in Table 4 are the same as those in Table 1 and Table 2 above.” for “ares.”

Assay [5] has as its system Echinochloa crus-galli. Described as above. The following applies: 120 g/10a active ingredient, assessed 14 days after treatment, dry weight vs untreated area. How it is done:
as §3, §5
as §2, with “was mixed,” for “was added,”, “greenhouse. Emulsions” for “greenhouse. Immediately after that, emulsions”, “Table 4” for “Table 3”, “with water seven days after seeding,” for “with water,”, “ares. The test was conducted in a double system per one agent solution concentration area, and the herbicidal rates (%) were determined by the equation (Math. 1) on 14 days after the treatment with the agents. […] The compound numbers in Table 4 are the same as those in Table 1 and Table 2 above.” for “ares.”

Assay [6] deals with broad leaf weeds (Lindernia pyxidaria and Monochoria vaginalis). The assay is described as above. The note with it: 120 g/10a active ingredient, assessed 14 days after treatment, dry weight vs untreated area. As for the experimental part:
as §3, §5
as §2, with “was mixed,” for “was added,”, “greenhouse. Emulsions” for “greenhouse. Immediately after that, emulsions”, “Table 4” for “Table 3”, “with water seven days after seeding,” for “with water,”, “ares. The test was conducted in a double system per one agent solution concentration area, and the herbicidal rates (%) were determined by the equation (Math. 1) on 14 days after the treatment with the agents. […] The compound numbers in Table 4 are the same as those in Table 1 and Table 2 above.” for “ares.”

As to `CCC(C)Cn1oc(=O)c(Cc2ccccc2N(C(=O)OCc2ccccc2)S(=O)(=O)C(F)(F)F)c1C` (single isomer, unassigned) [1-788 (TLC top)], the entries for the “Herbicidal rate (%) Scirpus juncoides” value in the assay on Scirpus juncoides [1] and in the assay with Scirpus juncoides [4] were 80% and 50%, respectively. In addition, the “Herbicidal rate (%) Echinochloa crus-galli” value in the assay on Echinochloa crus-galli [2] came to 80%; in the assay with Echinochloa crus-galli [5] it was 40%. Also, the “Herbicidal rate (%) Lindernia pyxidaria” value in assay [3] came to 60%; in assay [6], 40%. The “Herbicidal rate (%) Monochoria vaginalis” value is listed as 50% in assay [3] and 40% in assay [6].

Turning to `Cc1c(Cc2cc(F)ccc2NS(=O)(=O)C(F)(F)F)c(=O)on1Cc1ccccc1` [Compound 1-31], the results for the “Herbicidal rate (%) Scirpus juncoides” value in the assay on Scirpus juncoides [1] and in the assay on Scirpus juncoides [4] were 90% and 70%, respectively. Moreover, the “Herbicidal rate (%) Echinochloa crus-galli” value in the assay on Echinochloa crus-galli [2] amounted to 90%; in the assay with Echinochloa crus-galli [5] it was 50%. For the same molecule, the “Herbicidal rate (%) Lindernia pyxidaria” value in assay [3] is on record as 90%; in assay [6], 60%. In addition, the “Herbicidal rate (%) Monochoria vaginalis” value in assay [3] and in assay [6] was 80% each time.

As for `Cc1c(Cc2c(Cl)cccc2NS(=O)(=O)C(F)(F)F)c(=O)on1C(C)C` [Compound 1-46], the “Herbicidal rate (%) Scirpus juncoides” value in the assay with Scirpus juncoides [1] was found to be 90%; with Scirpus juncoides [4], 60%. Further, the “Herbicidal rate (%) Echinochloa crus-galli” value in the assay on Echinochloa crus-galli [2] was found to be 60%; in the assay on Echinochloa crus-galli [5], 40%. Besides, the “Herbicidal rate (%) Lindernia pyxidaria” value worked out at 80% in assay [3] and 40% in assay [6]. Besides, the “Herbicidal rate (%) Monochoria vaginalis” value in assay [3] turned out to be 80%; in assay [6] it was 40%.

In the case of `Cc1c(Cc2c(Cl)cccc2N(S(=O)(=O)C(F)(F)F)S(=O)(=O)C(F)(F)F)c(=O)on1C(C)C` [Compound 1-47], the “Herbicidal rate (%) Scirpus juncoides” value amounted to 80% in the assay on Scirpus juncoides [1] and 70% with Scirpus juncoides [4]. Further, the “Herbicidal rate (%) Echinochloa crus-galli” value in the assay on Echinochloa crus-galli [2] and in the assay on Echinochloa crus-galli [5] was 40% in each case. For the same molecule, the “Herbicidal rate (%) Lindernia pyxidaria” value in assay [3] is given as 70%; in assay [6], 40%. Besides, the “Herbicidal rate (%) Monochoria vaginalis” value in assay [3] is recorded as 70%; in assay [6], 40%.

As to `CC(C)c1c(Cc2ccccc2NS(=O)(=O)C(F)(F)F)c(=O)on1C(C)C` [Compound 1-68], the “Herbicidal rate (%) Scirpus juncoides” value with Scirpus juncoides [1] was 90%; with Scirpus juncoides [4], 80%. Also, the “Herbicidal rate (%) Echinochloa crus-galli” value amounted to 80% with Echinochloa crus-galli [2] and 40% in the assay on Echinochloa crus-galli [5]. In addition, the entries for the “Herbicidal rate (%) Lindernia pyxidaria” value in assay [3] and in assay [6] were 90% and 70%, respectively. For the same molecule, the “Herbicidal rate (%) Monochoria vaginalis” value in assay [3] and in assay [6] was 80% each time.

Consider `CC(C)c1c(Cc2ccccc2N(S(=O)(=O)C(F)(F)F)S(=O)(=O)C(F)(F)F)c(=O)on1C(C)C` [Compound 1-69], for which the “Herbicidal rate (%) Scirpus juncoides” value in the assay on Scirpus juncoides [1] was determined as 90%; in the assay with Scirpus juncoides [4], 60%. Besides, the entries for the “Herbicidal rate (%) Echinochloa crus-galli” value in the assay on Echinochloa crus-galli [2] and with Echinochloa crus-galli [5] were 80% and 60%, respectively. Besides, the “Herbicidal rate (%) Lindernia pyxidaria” value turned out to be 70% in assay [3] and 40% in assay [6]. The “Herbicidal rate (%) Monochoria vaginalis” value in assay [3] is listed as 70%; in assay [6], 60%.

Turning to `Cn1oc(=O)c(Cc2ccccc2NS(=O)(=O)C(F)(F)F)c1C(F)(F)F` [Compound 1-78], the “Herbicidal rate (%) Scirpus juncoides” value is 70% in the assay on Scirpus juncoides [1] and 80% in the assay on Scirpus juncoides [4]. The “Herbicidal rate (%) Echinochloa crus-galli” value with Echinochloa crus-galli [2] and with Echinochloa crus-galli [5] was 40% each time. Further, the “Herbicidal rate (%) Lindernia pyxidaria” value in assay [3] was found to be 50%; in assay [6], 40%. The “Herbicidal rate (%) Monochoria vaginalis” value came to 50% in assay [3] and 60% in assay [6].

As to `CC(C)n1oc(=O)c(Cc2ccccc2N(S(=O)(=O)C(F)(F)F)S(=O)(=O)C(F)(F)F)c1C1CC1` [Compound 1-84], the results for the “Herbicidal rate (%) Scirpus juncoides” value with Scirpus juncoides [1] and in the assay with Scirpus juncoides [4] were 80% and 70%, respectively. The “Herbicidal rate (%) Echinochloa crus-galli” value in the assay with Echinochloa crus-galli [2] is 80%; in the assay on Echinochloa crus-galli [5], 40%. For the same molecule, the “Herbicidal rate (%) Lindernia pyxidaria” value worked out at 70% in assay [3] and 40% in assay [6]. Also, the entries for the “Herbicidal rate (%) Monochoria vaginalis” value in assay [3] and in assay [6] were 70% and 40%, respectively.

Take `C=CCn1oc(=O)c(Cc2ccccc2NS(=O)(=O)C(F)(F)F)c1C` [Compound 1-135]: the “Herbicidal rate (%) Scirpus juncoides” value with Scirpus juncoides [1] and with Scirpus juncoides [4] was 90% each time. In addition, the “Herbicidal rate (%) Echinochloa crus-galli” value with Echinochloa crus-galli [2] is 90%; with Echinochloa crus-galli [5] it was 80%. Also, the “Herbicidal rate (%) Lindernia pyxidaria” value is reported as 90% in assay [3] and 40% in assay [6]. For the same molecule, the “Herbicidal rate (%) Monochoria vaginalis” value in assay [3] and in assay [6] was 60% throughout.

`Cc1c(Cc2ccccc2NS(=O)(=O)C(F)(F)F)c(=O)on1CCOC(C)C` [Compound 1-155]: the “Herbicidal rate (%) Scirpus juncoides” value with Scirpus juncoides [1] and with Scirpus juncoides [4] was 80% in each case. Further, the entries for the “Herbicidal rate (%) Echinochloa crus-galli” value in the assay on Echinochloa crus-galli [2] and in the assay with Echinochloa crus-galli [5] were 90% and 100%, respectively. For the same molecule, the “Herbicidal rate (%) Lindernia pyxidaria” value in assay [3] and in assay [6] was 60% throughout. In addition, the “Herbicidal rate (%) Monochoria vaginalis” value in assay [3] and in assay [6] was 60% in each case.

As to `CSCCCn1oc(=O)c(Cc2ccccc2NS(=O)(=O)C(F)(F)F)c1C` [Compound 1-167], the “Herbicidal rate (%) Scirpus juncoides” value in the assay with Scirpus juncoides [1] and with Scirpus juncoides [4] was 90% throughout. In addition, the results for the “Herbicidal rate (%) Echinochloa crus-galli” value in the assay with Echinochloa crus-galli [2] and in the assay with Echinochloa crus-galli [5] were 100% and 90%, respectively. Further, the “Herbicidal rate (%) Lindernia pyxidaria” value in assay [3] and in assay [6] was 90% each time. For the same molecule, the “Herbicidal rate (%) Monochoria vaginalis” value in assay [3] is reported as 80%; in assay [6] it was 90%.

`Cc1c(Cc2ccccc2NS(=O)(=O)C(F)(F)F)c(=O)on1Cc1ccccc1F` [Compound 1-181]: the “Herbicidal rate (%) Scirpus juncoides” value in the assay on Scirpus juncoides [1] and in the assay with Scirpus juncoides [4] was 90% throughout. Moreover, the “Herbicidal rate (%) Echinochloa crus-galli” value with Echinochloa crus-galli [2] is given as 90%; in the assay with Echinochloa crus-galli [5] it was 50%. Besides, the figures for the “Herbicidal rate (%) Lindernia pyxidaria” value in assay [3] and in assay [6] were 100% and 80%, respectively. For the same molecule, the “Herbicidal rate (%) Monochoria vaginalis” value in assay [3] and in assay [6] was 90% each time.

Regarding `Cc1c(Cc2ccccc2N(S(=O)(=O)C(F)(F)F)S(=O)(=O)C(F)(F)F)c(=O)on1Cc1cccc(F)c1` [Compound 1-1013], the “Herbicidal rate (%) Scirpus juncoides” value with Scirpus juncoides [1] is 90%. Besides, the “Herbicidal rate (%) Echinochloa crus-galli” value with Echinochloa crus-galli [2] is given as 40%. For the same molecule, in assay [3], the “Herbicidal rate (%) Lindernia pyxidaria” value is 90% and the “Herbicidal rate (%) Monochoria vaginalis” value turned out to be 90%.

Regarding `Cc1c(Cc2ccccc2N(S(=O)(=O)C(F)(F)F)S(=O)(=O)C(F)(F)F)c(=O)on1Cc1ccc(C(F)(F)F)cc1` [Compound 1-1021], the “Herbicidal rate (%) Scirpus juncoides” value with Scirpus juncoides [1] is on record as 60%. For the same molecule, the “Herbicidal rate (%) Echinochloa crus-galli” value in the assay on Echinochloa crus-galli [2] is 40%. Moreover, in assay [3], the “Herbicidal rate (%) Lindernia pyxidaria” value amounted to 40% and the “Herbicidal rate (%) Monochoria vaginalis” value stood at 40%.

Consider `Cc1c(Cc2ccccc2N(S(=O)(=O)C(F)(F)F)S(=O)(=O)C(F)(F)F)c(=O)on1Cc1ccc(F)c(Cl)c1` [Compound 1-1029], for which, in the assay with Scirpus juncoides [1], the “Herbicidal rate (%) Scirpus juncoides” value worked out at 60%. Besides, the “Herbicidal rate (%) Echinochloa crus-galli” value in the assay on Echinochloa crus-galli [2] worked out at 60%. In addition, in assay [3], the “Herbicidal rate (%) Lindernia pyxidaria” value is 60% and the “Herbicidal rate (%) Monochoria vaginalis” value is on record as 60%.
